#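 Grown in 96-well plates, cells were treated for 48 hours with each compound at five concentrations. Insufficient inhibition: endpoint recorded as highest concentration tested. Abbreviation: GI50, concentration required for 50% inhibition of growth. TGI is the concentration that stops growth completely.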
# Columns and labels:
# Test in all cases: NCI tumour cell line growth inhibition, 48 h
# SW-620 colon = system: SW-620 colon
# MDA-MB-435 = system: MDA-MB-435
# CAKI-1 renal = system: CAKI-1 renal
# HL-60(TB) leukemia = system: HL-60(TB) leukemia
# PC-3 prostate = system: PC-3 prostate
# SK-OV-3 ovarian = system: SK-OV-3 ovarian
# OVCAR-5 ovarian = system: OVCAR-5 ovarian
# HT29 colon = system: HT29 colon
# HCT-116 colon = system: HCT-116 colon
# MALME-3M melanoma = system: MALME-3M melanoma
Compound,GI50 (SW-620 colon) [µM],TGI (SW-620 colon) [µM],GI50 (MDA-MB-435) [µM],TGI (MDA-MB-435) [µM],GI50 (CAKI-1 renal) [µM],TGI (CAKI-1 renal) [µM],GI50 (HL-60(TB) leukemia) [µM],TGI (HL-60(TB) leukemia) [µM],GI50 (PC-3 prostate) [µM],TGI (PC-3 prostate) [µM],GI50 (SK-OV-3 ovarian) [µM],TGI (SK-OV-3 ovarian) [µM],GI50 (OVCAR-5 ovarian) [µM],TGI (OVCAR-5 ovarian) [µM],GI50 (HT29 colon) [µM],TGI (HT29 colon) [µM],GI50 (HCT-116 colon) [µM],TGI (HCT-116 colon) [µM],TGI (MALME-3M melanoma) [µM]
COc1ccc(-c2nc3ccccn3c2/C=C/C(=O)c2cc(OC)c(OC)c(OC)c2)cc1,4.16,> 100,5.76,27.6,8.33,> 100,34,> 100,19.8,> 100,14.8,> 100,9.33,82.2,4.8,32.4,2.26,11.1,
NCCCNCCCCN(CCCN)/[N+]([O-])=N\O,,> 100,,,,> 100,,> 100,,,,,,> 100,,> 100,,> 100,> 100
S=c1cc(S)sc2c1c(=S)sc1nc3ccccn3c(=S)c12,,> 100,,,,> 100,,97.3,,,,,,> 100,,> 100,,> 100,> 100
C[C@]1(CO)CCC[C@@]2(C)C1CC[C@H]1CC3C[C@]12CC[C@]3(C)O (some centres not stated),,> 100,,,,> 100,,41.1,,,,> 100,,> 100,,> 100,,> 100,> 100
Clc1ccc(C2SCc3nc4ccccc4n32)cc1Cl (configuration not stated),,28.6,,,,27,,40.7,,,,36.2,,22.8,,29.9,,26.2,42.5
O=CC[C@H]1CCc2ccccc2C12CCC(=O)CC2,,> 100,,,,> 100,,65.8,,,,> 100,,> 100,,> 100,,> 100,> 100
O=[N+]([O-])c1c(Br)sc(Br)c1[N+](=O)[O-],1.6,3.27,2,5.28,1.83,3.63,2.4,6.65,1.94,4.03,14,27,2.46,6.95,1.7,3.47,,,
CCc1cccc(C(C)C)c1NC(=O)C(=O)C(CC(=O)Nc1ccc(Cl)c(Cl)c1)C(=O)OC (configuration not stated),,24.6,,,,> 100,,> 100,,,,> 100,,> 100,,> 100,,> 100,> 100
C1=CC=C2NCCCNC3=CC=CC=CC3=NCCCN=C2C=C1,,> 100,,,,,,> 100,,,,> 100,,> 100,,> 100,,> 100,
COc1cc(OC)c(C2CC=Cc3c(OC)cc(OC)c(OC)c32)cc1OC (configuration not stated),,> 100,,,,> 100,,> 100,,,,> 100,,> 100,,> 100,,> 100,> 100
O=C(CC1(O)C(=O)Nc2c(Cl)cc(Cl)cc21)c1cccc2ccccc12 (configuration not stated),,31.8,,,,25.3,,26.5,,,,30.2,,37.1,,33.8,,28.5,35.2

# — PubChem BioAssay (NCI)
